In patent publication US20260226060A1, “SALTS AND CRYSTALLINE FORMS OF COMPOUND A, METHODS OF PREPARATION, AND USES THEREOF” (SHENZHEN NEWDEL BIOTECH CO., LTD., priority 2023, published 2026):

What was measured:
Format in all cases: physicochemical
[1] = Short-term physical stability of anhydrous crystal forms (40° C./75% RH, open, 1 day; XRPD)
Source text: In addition to the mesylate crystalline form I, the other anhydrous crystalline forms were stable under high humidity conditions.

[2] = Dynamic vapor sorption (DVS) hygroscopicity
Protocol: The water vapor sorption/desorption data of the samples were collected on a dynamic vapor sorption instrument (proUmid GmbH & Co. KG, Germany). Approximately 50-70 mg of sample was placed in a sample pan previously tared and the weight of the sample was measured accurately.

[3] = Solid state stability at 60° C. (closed) and 40° C./75% RH (open), XRPD and HPLC purity
Protocol: (closed) and 40° C./75 RH (open) for 14 days, XRPD analysis and purity analysis were performed at various points of time, and solid-state stability was evaluated.
(§1) HPLC analysis was performed by using an Agilent HPLC 1260 series instrument and the HPLC methods used for solubility and stability determinations were shown in Tables 33 and 34, respectively.

[4] = IC analysis of residual solid of phosphate crystalline form I (PO4 content, dissociation)
Protocol: IC analysis of the salts was performed by using a Thermo ICS-6000 instrument.

[5] = Solubility analysis in biological solvents (SGF, FaSSIF, FeSSIF) and water, with pH and XRPD of residual solid; settings: for Solubility: 37° C.
Protocol: as §1

XPRD Results after short-term physical stability [1]: unchanged
crystalline form after DVS analysis (XRPD) [2]: remained unchanged
hygroscopicity (DVS) [2]: slightly hygroscopic
DVS The weight gains by vapor sorption % ([2]; 80% RH): 1.3%
DVS The weight gains by vapor sorption % ([2]; 90% RH): 1.6%
DVS The weight gains by vapor sorption % ([2]; 90% RH, listed as phosphate crystalline form I): ~1.6%
Purity in stability evaluation ([3]; 0 d): 98.78 Area %
Solid state stability-14 days ([3]; 60° C./Closed and 40° C./75% RH (Open), 14 days): physically and chemically stable
Purity in stability evaluation ([3]; 7 d-40° C./75% RH): 98.78 Area %
XRPD in stability evaluation ([3]; 7 d-40° C./75% RH): unchanged
Purity in stability evaluation ([3]; 7 d-60° C./capped): 98.78 Area %
XRPD in stability evaluation ([3]; 7 d-60° C./capped): unchanged
Purity in stability evaluation ([3]; 14 d-40° C./75% RH): 98.78 Area %
XRPD in stability evaluation ([3]; 14 d-40° C./75% RH): unchanged
Purity in stability evaluation ([3]; 14 d-60° C./capped): 98.78 Area %
XRPD in stability evaluation ([3]; 14 d-60° C./capped): unchanged
dissociation of salt in solubility media (IC of residual solids) ([4]; FaSSIF and FeSSIF): dissociated to free base
Dissociation degree ([4]; FaSSIF, 0.5 h): 91%
PO4^3− in residual solid ([4]; FaSSIF, 0.5 h): 0.1 eq.
XPRD Results Dry sample of residual solid ([4]; FaSSIF, 0.5 h): Amorphous
XPRD Results Wet sample of residual solid ([4]; FaSSIF, 0.5 h): Form 1
Dissociation degree ([4]; FaSSIF, 2 h): 97%
PO4^3− in residual solid ([4]; FaSSIF, 2 h): 0.03 eq.
XPRD Results Dry sample of residual solid ([4]; FaSSIF, 2 h): Amorphous
XPRD Results Wet sample of residual solid ([4]; FaSSIF, 2 h): Form 1
Dissociation degree ([4]; FaSSIF, 24 h): >99%
PO4^3− in residual solid ([4]; FaSSIF, 24 h): <0.006 eq.
XPRD Results Dry sample of residual solid ([4]; FaSSIF, 24 h): Form 3
XPRD Results Wet sample of residual solid ([4]; FaSSIF, 24 h): Form 2
Dissociation degree ([4]; FeSSIF, 0.5 h): >99%
PO4^3− in residual solid ([4]; FeSSIF, 0.5 h): <0.006 eq.
XPRD Results Dry sample of residual solid ([4]; FeSSIF, 0.5 h): Amorphous
XPRD Results Wet sample of residual solid ([4]; FeSSIF, 0.5 h): Form 1
Dissociation degree ([4]; FeSSIF, 24 h): 100%
PO4^3− in residual solid ([4]; FeSSIF, 24 h): 0 eq.
XPRD Results Dry sample of residual solid ([4]; FeSSIF, 24 h): Amorphous
XPRD Results Wet sample of residual solid ([4]; FeSSIF, 24 h): Form 1
pH in solubility analysis ([5]; FaSSIF (medium pH 6.5), 0.5 h): 5.7
pH in solubility analysis ([5]; FaSSIF (medium pH 6.5), 2 h): 5.5
pH in solubility analysis ([5]; FaSSIF (medium pH 6.5), 24 h): 5.5
solubility at 24 h ([5]; FaSSIF, 37 °C, pH 6.5, fassif, thermodynamic from solid, 24 h, target 5 mg/mL): 22 µg/mL
XRPD of residual solid in solubility analysis ([5]; FaSSIF, 0.5 h): Form 1
Solubility ([5]; FaSSIF, 0.5 h, target 5 mg/mL): 57 µg/mL
Solubility ([5]; FaSSIF, 0.5 h, target 5 mg/mL, listed as phosphate crystalline form I): 57 µg/mL
XRPD of residual solid in solubility analysis ([5]; FaSSIF, 0.5 h, listed as phosphate crystalline form I): Newform 1
Solubility ([5]; FaSSIF, 2 h, target 5 mg/mL): 48 µg/mL
Solubility ([5]; FaSSIF, 2 h, target 5 mg/mL, listed as phosphate crystalline form I): 48 µg/mL
XRPD of residual solid in solubility analysis ([5]; FaSSIF, 24 h): Form 2
XRPD of residual solid in solubility analysis ([5]; FaSSIF, 24 h, listed as phosphate crystalline form I): new form 2
pH in solubility analysis ([5]; FeSSIF (medium pH 5.0), 0.5 h): 4.9
pH in solubility analysis ([5]; FeSSIF (medium pH 5.0), 2 h): 4.9
pH in solubility analysis ([5]; FeSSIF (medium pH 5.0), 24 h): 5.0
XRPD of residual solid in solubility analysis ([5]; FeSSIF, 0.5 h): Form 1
Solubility ([5]; FeSSIF, 0.5 h, target 5 mg/mL): 1029 µg/mL
Solubility ([5]; FeSSIF, 0.5 h, target 5 mg/mL, listed as phosphate crystalline form I): 1029 µg/mL
XRPD of residual solid in solubility analysis ([5]; FeSSIF, 0.5 h, listed as phosphate crystalline form I): Newform 1
Solubility ([5]; FeSSIF, 2 h, target 5 mg/mL): 1175 µg/mL
Solubility ([5]; FeSSIF, 2 h, target 5 mg/mL, listed as phosphate crystalline form I): 1175 µg/mL
XRPD of residual solid in solubility analysis ([5]; FeSSIF, 24 h): Form 1
Solubility ([5]; FeSSIF, 24 h, target 5 mg/mL): 1948 µg/mL
Solubility ([5]; FeSSIF, 24 h, target 5 mg/mL, listed as phosphate crystalline form I): 1948 µg/mL
pH in solubility analysis ([5]; SGF (medium pH 1.2), 0.5 h): 1.2
pH in solubility analysis ([5]; SGF (medium pH 1.2), 2 h): 1.4
pH in solubility analysis ([5]; SGF (medium pH 1.2), 24 h): 1.2
Solubility ([5]; SGF, 0.5 h, target 5 mg/mL): <LOD
Solubility ([5]; SGF, 0.5 h, target 5 mg/mL, listed as phosphate crystalline form I): <LOD/<LOD/
Solubility ([5]; SGF, 2 h, target 5 mg/mL): <LOD
Solubility ([5]; SGF, 2 h, target 5 mg/mL, listed as phosphate crystalline form I): <LOD/<LOD/
XRPD of residual solid in solubility analysis ([5]; SGF, 24 h): amorphous
Solubility ([5]; SGF, 24 h, target 5 mg/mL): <LOD
XRPD of residual solid in solubility analysis ([5]; SGF, after 2 h): amorphous
pH in solubility analysis ([5]; water (medium pH 6.6), 0.5 h): 2.8
pH in solubility analysis ([5]; water (medium pH 6.6), 2 h): 2.7
pH in solubility analysis ([5]; water (medium pH 6.6), 24 h): 2.6
Solubility ([5]; water, 0.5 h, target 5 mg/mL): <LOD
Solubility ([5]; water, 0.5 h, target 5 mg/mL, listed as phosphate crystalline form I): <LOD/<LOD/
Solubility ([5]; water, 2 h, target 5 mg/mL): <LOD
Solubility ([5]; water, 2 h, target 5 mg/mL, listed as phosphate crystalline form I): <LOD/<LOD/
Solubility ([5]; water, 24 h, target 5 mg/mL): <LOD
XRPD pattern of the residual solid in water ([5]; water, time not stated): an additional peak at 160 (20)
SMILES: Cc1c(C#Cc2cnc3ccc(N4CCC(O)CC4)nn23)cccc1C(=O)Nc1cc(Cl)cc(C(F)(F)F)c1 [Phosphate crystalline form I]
